Test results published in patent US20260022112A1, “NOVEL CO-CRYSTAL OF ENAVOGLIFLOZIN” (DAEWOONG PHARMACEUTICAL CO., LTD., priority 2022, published 2026).
≈ marks a conversion by molar mass, not a printed value. Read-outs that look alike come from different tables or passages of the source. One block for each compound: values may come before it.

Assays:
[1] = Solubility in artificial gastric fluid (FaSSGF); type: physicochemical; conditions: fassgf or other biorelevant, thermodynamic from solid
[2] = Solubility in artificial intestinal fluid (FaSSIF); type: physicochemical; conditions: thermodynamic from solid
[3] = Stress stability evaluation, 60° C., 4 weeks, HPLC; type: physicochemical
[4] = Pharmacokinetic evaluation in beagle dogs; type: in vivo; conditions: plasma, 1 mg/kg
Experimental: A test was conducted to confirm whether the pharmacokinetic profiles of enavogliflozin/proline co-crystals were improved in beagle dogs. Each of the crystalline form A of enavogliflozin and the proline co-crystal was orally administered at a dose of 1 mg/kg to male beagle dogs by setting the crystalline form A of enavogliflozin as a control and the proline co-crystal as a comparative group, and blood collection was conducted before administration (0 hour), and for 0.083, 0.25, 0.5, 0.75, 1, 1.5, 2, 4, 6, 8, 12, and 24 hours (a total of 13 times). Blood drug concentrations were analyzed by LC-MS/MS using plasma separated from the collected samples, and pharmacokinetic parameters such as the maximum observed plasma concentration (Cmax), an area under the plasma concentration-time curve (AUClast and AUCinf), a time-to-maximum observed plasma concentration (Tmax), and a half-life (T1/2) were calculated and interpreted using the WinNonlin 5.0.1 program.

[5] = crystalline form of Patent Document 2; cited from earlier work

solubility at 30 min ([1]; 30 minutes): 310 µg/mL (≈ 694 µM)
solubility at 1 h ([1]; 1 hour): 340 µg/mL (≈ 761 µM)
solubility at 2 h ([1]; 2 hours): 350 µg/mL (≈ 783 µM)
solubility at 4 h ([1]; 4 hours): 350 µg/mL (≈ 783 µM)
solubility at 30 min ([2]; 30 minutes): 690 µg/mL (≈ 1540 µM)
solubility at 1 h ([2]; 1 hour): 940 µg/mL (≈ 2100 µM)
solubility at 2 h ([2]; 2 hours): 1000 µg/mL (≈ 2240 µM)
solubility at 4 h ([2]; 4 hours): 920 µg/mL (≈ 2060 µM)
solubility at 0 h ([2]; Initial): 10000 µg/mL (≈ 22400 µM)
Purity (HPLC) in stress stability evaluation ([3]; 2 weeks, listed as Crystalline form of enavogliflozin): 98.8%
Purity (HPLC) in stress stability evaluation ([3]; 4 weeks, listed as Crystalline form of enavogliflozin): 99.1%
Purity (HPLC) in stress stability evaluation ([3]; Initial, listed as Crystalline form of enavogliflozin): 99.1%
AUC(0-inf) ([4]; male, beagle, dog, po): 4640 ng·h/mL
AUC(0-t) ([4]; male, beagle, dog, po): 4340 ng·h/mL
half-life ([4]; male, beagle, dog, po): 319 min
Cmax ([4]; male, beagle, dog, po, read-out: Cmax): 482 ng/mL
Tmax ([4]; male, beagle, dog, po, read-out: Tmax): 4 h
Compound: OC[C@H]1O[C@@H](c2cc(Cc3ccc(C4CC4)cc3)c(Cl)c3c2CCO3)[C@H](O)[C@@H](O)[C@@H]1O [Crystalline form A of enavogliflozin, enavogliflozin]

Purity (HPLC) in stress stability evaluation ([3]; 2 weeks): 99.9%
Purity (HPLC) in stress stability evaluation ([3]; 4 weeks): 99.8%
Purity (HPLC) in stress stability evaluation ([3]; Initial): 99.9%
AUCinf ([4]; male beagle dogs, oral): 5341.58 ng·h/mL
AUClast ([4]; male beagle dogs, oral): 4428.20 ng·h/mL
Cmax ([4]; male beagle dogs, oral): 482.60 ng/mL
T1/2 ([4]; male beagle dogs, oral): 6.10 h
Tmax ([4]; male beagle dogs, oral): 5.20 h
Compound: OC[C@H]1O[C@@H](c2cc(Cc3ccc(C4CC4)cc3)c(Cl)c3c2CCO3)[C@H](O)[C@@H](O)[C@@H]1O [Enavogliflozin/proline co-crystal]
Thermal stability compared with crystalline form of enavogliflozin ([3]; 4 weeks): equivalent to that of the crystalline form of enavogliflozin

Compound: OC[C@H]1O[C@@H](c2cc(Cc3ccc(C4CC4)cc3)c(Cl)c3c2CCO3)[C@H](O)[C@@H](O)[C@@H]1O [enavogliflozin]
Solubility (water solubility) [5]: 0.25 mg/mL (≈ 559 µM)
